Test results taken from US20100152150A1, “THE APPLICATION OF MARINE STEROID IN PREPARING THE MEDICINE OF TREATING NEURONS DAMAGING” (priority 2006, published 2010).

Experiments:
[1] = tested on: rat cerebellar granule neurons (CGNs); assay: Hypoxia/reoxygenation (H/R) induced death of in vitro cultured cerebellar granule neurons; assay type: cell-based; conditions: for CGNs morphology under inverted fluorescence microscope: pre-treated 3 h with 10 μM MK801 or 12 μM YC-1 or 12 μM YC-2, then 3 h hypoxia and 24 h reoxygenation
Protocol: 1) Culture of Rat Cerebellar Granule Neurons (CGNs)
According to Yan, etc, the neurons were prepared as follows:
(1) A clean 7-8 d SD rat weighing about 15-20 g was taken and the cerebella was separated under sterile condition.
(2) The meninges and vessels were gotten rid of in Kreb's anatomy solution (Ca^2+ and Mg^2+ free).
(3) The cerebella was sheared into pieces of 1 mm^3 with ophthalmic scissors.
(4) Digested in 0.25 g/L trypsin solution for 15 min at 37.
(5) The digestion was stopped with solution containing 0.5 g/L trypsin inhibitor and 0.05 g/L Dnase I and pipetted up and down to get single cell suspension.
(6) The single cell suspension was centrifuged at 200 g for 5 min, the precipitation was rinsed once with rinse solution.
(7) Span down again at 200 g for 5 min, the supernatant was discarded.
(8) The cell pellet was diluted to cell density of 1.5-1.8×10^6 cells/ml with BME medium containing 10% (v/v) FBA and 25 mM KCl.
(9) They were inoculated into cell culture dishes pre-coated with polylysine and incubated at 370 incubator with 5% CO2.
(10) Twenty-four hours after inoculation, 10 μmol/L Ara-C was added to inhibit non-neuron cells' growth and proliferation and to make the purity of CGNs above 95%.
(11) Glucose was added to 5 mM on day 7 incubation to supplement energy needed by cell metabolism.
(12) The experiment on day 8.
2). Establishment of CGNs Hypoxia/Reoxygenation (H/R) Injury Model
Referred to Seko (Seko Y, To be K, Ueki K, et al. Hypoxia and hypoxia/reoxygenation activate Raf-1, mitogen-activated protein kinase kinase, mitogen-activated protein kinases, and S6 kinase in cultured rat cardiac myocytes. Circ Res. 1996 January; 78(1):82-90) etc for the establishment method:
(1) On day 8, the treated CGNs were put in airtight box with oxygen consumption reagent and indicator and incubated at 37° for 3 h.
(2) The cells were transferred to 370 incubator with 5% CO2 for reoxygenation treatment.
(3). Cell morphological observation and neuron viability measurement
The following were done referring to Yan (Yan G M, Irwin R P, Lin S Z, et al. Diphenylhydantoin induces apoptotic cell death of cultured rat cerebellar granule neurons. J Pharmacol Exp Ther, 1995, 274(2): 983-8) et al.:
(1) CGNs were cultured in 35 mm dishes, on day 8, the medium was removed after various factors treatment, the cells were rinsed twice with 4 PBS containing Ca^2+ and Mg^2+.
(2) The cells were fixed with 40 g/L paraformaldehyde (40, dissolved in PBS) for 10 min.
(3) The fixation solution was removed, the cells were rinsed twice with distilled water, air dried at 4°.
(4) The cell morphological change was observed and randomly photographed under inverted fluorescence microscope (Olympus).

[2] = tested on: SD rats with permanent middle cerebral artery occlusion (MCAO); assay: MCAO induced rat cerebral ischemia model; assay type: in vivo
Protocol: Method: Preparation of Rat Middle Cerebral Artery Occlusion (MCAO) Model
25 healthy male SD rats were divided into 3 groups randomly: YC-1 group (n=11): 10 min, 6 h, 24 h and 7 d after occluding the middle cerebral artery, 12 mg/Kg YC-1 was continuously injected intraperitoneally. DMSO group (n=11): same volume of DMSO (1 ml/Kg) was injected in the same way. Sham group (n=3): just very short intraluminal thread was inserted and didn't occlude the MCA.
The following method was a modification of Zea Longa's method (Longa E Z, Weinstein P R, Carlson S, Cummins R. Reversible middle cerebral artery occlusion without craniectomy in rats. Stroke, 1989, 20: 84-91).
(1) The rats drinked freely but fasted one night before the operation.
(2) 10 min before anesthesia, atropine sulfate (0.5 mg/Kg) was intraperitoneally (ip) injected.
(3) Narcotized the rat with ip injected 10% chloral hydrate, 3.5 ml anesthetic per Kg rat; The areflexia of hindlimb retraction and corneal were used as anesthesia index. […]
(7) Rectum temperature was measured by using Meikangti electronic temperature measure instrument the whole process and it was strictly controlled at 36.5-37.5°. […]

[3] = tested on: New Zealand white rabbits with spinal cord ischemia; assay: Abdominal aorta clipping induced rabbit spinal cord ischemia model; assay type: in vivo; conditions: 8 mg/Kg intravenous 30 min before ischemia
Protocol: Method: Preparation of spinal cord ischemia model.
24 male New Zealand white rabbits were divided evenly into 3 groups (n=8):
YC-1 group: 30 min before spinal cord ischemia, 8 mg/Kg YC-1 was intravenous injected through the rabbit's ear. DMSO group: same volume of DMSO (1 ml/Kg) was injected in the same way.
Sham group: the abdominal aorta was exposed but wasn't clipped.
Referring to Johnson etc, the model was prepared as follows:
(1) The rabbits drinked freely but fasted one night before the operation.
(2) The rabbit was anesthetized by injecting 3% sodium pentobarbital (30 mg/Kg) by ear intravenous. On the other side of the ear a vein-detaining needle (24 G) was set for medicine and other fluid infusion.
(3) An artery-detaining needle (24 G) was set in the right ear artery for monitoring the proximal arterial pressure and blood sampling during the operation.
(4) An artery-detaining needle (24 G) was set in a femoral artery for monitoring the distal arterial pressure during the operation.
(5) The rabbit was supinely fixed and incised at the median abdomen; the abdominal aorta was exposed.
(6) Injected heparin (150 U/Kg) through the vein-detaining needle, then the abdominal aorta was clipped at the 0.5-1.0 cm spot below origin of the left renal artery to cause spinal cord ischemia.
(7) Once the abdominal aorta was blocked, the distal arterial pressure decreased immediately and the femoral arterial pulsation disappeared.
(8) The clip was removed 20 min after ischemia and the abdomen was sutured.
(9) Then intramuscularly injected 40,000 U gentamicin, the rabbit was returned back to cage and observed for 48 h.
(10) The proximal arterial pressure, distal arterial pressure and heart rate (Spacelab, US) were continuously monitored during the operation. Rectum temperature was maintained at 38.5±0.5° by using heating pad and roasting lamp.
(11) Blood gas (AVL-2, Switzerland) and glucose (One Touch II, USA) were monitored by ear artery blood sampling 10 min before ischemia, 10 min after ischemia and 10 min after reperfusion.

[4] = tested on: rat cerebellar granule neurons (CGNs); assay: Repolarization (low potassium, LK) induced death of in vitro cultured cerebellar granule neurons; assay type: cell-based
Protocol: The methods for rat CGNs cell culture, cellular morphologic observation and neuronal viability measurement were the same as above. Then check the in vitro cultured cerebellar granule neurons death through agarose gel electrophoresis according to reference:
(1) CGNs in […] dishes were inoculated.
(2) On day 8, 24 h after adding various medicines, the medium was removed, the cells were rinsed twice with PBS.
(3) The collected cells were spun down with a low temperature high speed centrifuge (Biofuge22R, Heraeus, Germany) at 5000 rpm, 4° for 5 min.
(4) the cell pellet was resuspended with 600 μl buffer containing 10 mmol/L Tris-HCl, 10 mmol/L EDTA and 2 g/L Triton X-100 (pH 7.5) and incubated for 15 min.
(6) The supernatant was extracted once with equal volume of phenol and spun down.
(7) The supernatant was extracted once with equal volume of phenol-chloroform (1:1), spun down.
(8) The supernatant was taken, 300 mmol/L Sodium Acetate and equal volume of isopropanol were added and precipitated for overnight.
(9) The pellet was spun down and rinsed 2-3 times with 70% ethanol.
(10) After drying, some TE (Tris 10 mmol L^−1, EDTA 1.0 mmol L^−1, pH 7.4, and 0.6 g·L^−1 RNase A) were added and incubated at 37° for 30 min.
(11) The samples were analyzed with 20 g/L agarose gel electrophoresis for 1 h.
(12) Dyed with ethidium bromide and photographed under UV light.

[5] = tested on: rat cerebellar granule neurons (CGNs); assay: Glutamic acid (Glu) induced death of in vitro cultured cerebellar granule neurons; assay type: cell-based
Source text: (1) Isolatation and primary culture of rat CGNs.
(2) Morphology observation of neuron cell body and processes under phase contrast microscopy.
(3) Analysis of neuronal metabolic activity and viability using fluorescein diacetate (FDA) staining.

Row | SMILES | viability at 10 µM ([1]; Rattus norvegicus, Neuron, 10 μM MK801 or 12 μM YC-1 or 12 μM YC-2, then H/R, H/R alone 16.56±3.21%, read-out: neuronal viability (FDA dye)) [%] | CGNs morphology under inverted fluorescence microscope [1] | brain tissue colour and morphology by visual inspection ([2]; rat MCAO, 12 mg/Kg intraperitoneally, DMSO group showed obvious pallor and swelling) | infarct size (TTC dye) ([2]; rat permanent MCAO, 12 mg/Kg YC-1 intraperitoneally at 10 min, 6 h, 24 h and 7 d after occlusion, DMSO group 62±8%) [%] | rabbits able to stand (hindlimb function) ([3]; rabbit spinal cord ischemia 20 min, n=8, no rabbit in DMSO group could stand) | neurological function score ([3]; rabbit spinal cord ischemia, each observation time point, versus DMSO group, p<0.05) | lumbar spinal cord injury (histopathological examination) ([3]; rabbit spinal cord ischemia, versus DMSO group) | number of normal spinal cord anterior horn neurons ([3]; rabbit spinal cord ischemia, versus DMSO group, p<0.01) | neuronal viability (FDA dye) ([1]; 10 μM MK801 or 12 μM YC-1 or 12 μM YC-2, then H/R, H/R alone 16.56±3.21%) [%] | nuclear morphology (Hoechst33258 dye) ([1]; 12 μM, then H/R treatment) | CGNs morphology (cell bodies and processes) ([4]; 12 μM added 3 h before and at change to 5 mM KCl serum free medium, 24 h) | CGNs survived (FDA staining) ([4]; 12 μM added 3 h before and at change to 5 mM KCl serum free medium, 24 h, low potassium alone 40.2±14.04%) [%] | DNA fragments produced from LK induced CGNs apoptosis (agarose gel electrophoresis) ([4]; FIG. 18) | Glu induced CGNs apoptosis (phase contrast microscopy) ([5]; 12 μM added 1 h before 150 μM Glu, observed 24 h later) | CGNs' viability (FDA staining) ([5]; 12 μM, 150 μM Glu 24 h, Glu control group 29.5±8.23%) [%]
1 | C[C@]12N[C@H](Cc3ccccc31)c1ccccc12 [MK801, reference compound] | 86.7 ± 3.21 | Most CGNs cell body kept intact, plump and lucent | – | – | – | – | – | – | – | – | – | – | – | – | –
2 | C=C(CC[C@@H](C)[C@H]1CC[C@H]2[C@@H]3C[C@@H](O)[C@@]4(O)C[C@@H](O)CC[C@]4(CO)[C@H]3CC[C@]12C)C(C)C [YC-1, 24-methylene-cholest-3β,5α,6β,19-tetrol] | – | Most CGNs cell body kept intact, plump and lucent | no obvious pallor and swelling | 32±11 | Six rabbits in the CPA (YC-1) group could stand | obviously higher than that in DMSO group | obviously relieved | increased evidently | 84.29±1.26 | Most CGNs showed normal nuclear morphology and even chromatin distribution | most CGNs kept intact cell bodies and processes | 94.3±14.02 | can reduce DNA fragments | obviously inhibited Glu induced CGNs apoptosis | 92.6±2.59
